Target: T1, human M4 muscarinic acetylcholine receptor (Homo sapiens, UniProt P08173)
T1 construct: expressed in transfected cells; host or cells: CHO-K1
T1 sequence (P08173 1-479): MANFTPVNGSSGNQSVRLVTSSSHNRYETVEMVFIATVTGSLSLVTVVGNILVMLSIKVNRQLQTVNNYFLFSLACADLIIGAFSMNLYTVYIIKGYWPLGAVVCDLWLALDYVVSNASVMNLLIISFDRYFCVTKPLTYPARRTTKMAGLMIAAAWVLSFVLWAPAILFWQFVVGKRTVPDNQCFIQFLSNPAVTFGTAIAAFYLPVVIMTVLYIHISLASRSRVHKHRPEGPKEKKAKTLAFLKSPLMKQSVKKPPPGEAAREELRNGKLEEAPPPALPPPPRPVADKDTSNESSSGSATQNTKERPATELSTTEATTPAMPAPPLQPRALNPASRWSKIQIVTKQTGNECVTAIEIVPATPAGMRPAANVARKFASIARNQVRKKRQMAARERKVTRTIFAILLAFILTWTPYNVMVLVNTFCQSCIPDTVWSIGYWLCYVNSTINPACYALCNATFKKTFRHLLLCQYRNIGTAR
Assay: human FLIPR-based M4 PAM assay (Ca2+ mobilization, CHO-K1 cells with human M4 receptor and Gαqi5)
Format: cell-based
Conditions: acetylcholine at 20% of maximum response, read-out: M4 PAM IP
Method in brief: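 CHO-K1 cells stably expressing human M4 and chimeric Gαqi5 were dye-loaded ~1 h at 37 °C and read for Ca2+ fluorescence. Compound followed by acetylcholine at an EC20 (sometimes an EC70 third addition); inflection point from a 4-parameter logistic fit.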

EC50 | SMILES
22 nM | COc1ccc(OC2CCN(c3nc4c(cc3C)C(=O)NC4=O)CC2)cn1 [Example 297, 2-(4-((6-Methoxypyridin-3-yl)oxy)piperidin-1-yl)-3-methyl-5H-pyrrolo[3,4-b]pyridine-5,7(6H)-dione]
24 nM | COc1ccc(OC2CCN(c3nc4c(cc3C)C(=O)NC4O)CC2)cn1 (stereo not drawn) [Example 298, 7-Hydroxy-2-(4-((6-methoxypyridin-3-yl)oxy)piperidin-1-yl)-3-methyl-6,7-dihydro-5H-pyrrolo[3,4-b]pyridin-5-one]
265 nM | COc1ccc(OC2CCN(c3nc4c(cc3C)C(=O)N(C(=O)OC(C)(C)C)C4)CC2)cn1 [Example 299, tert-Butyl 2-(4-((6-methoxypyridin-3-yl)oxy)piperidin-1-yl)-3-methyl-5-oxo-5,7-dihydro-6H-pyrrolo[3,4-b]pyridine-6-carboxylate]
286 nM | COc1ccc(OC2CCN(c3nc4c(cc3C)C(=O)NC43CC3)CC2)cn1 [Example 300]
1140 nM | COc1ccc(OC2CCN(c3nc4c(cc3CO)C(=O)NC4)CC2)cn1 [Example 301, 3-(Hydroxymethyl)-2-(4-((6-methoxypyridin-3-yl)oxy)piperidin-1-yl)-6,7-dihydro-5H-pyrrolo[3,4-b]pyridin-5-one]
819 nM | COc1ccc(OC2CCN(c3nc4c(c(CO)c3C)C(=O)NC4)CC2)cn1 [Example 302, 4-(hydroxymethyl)-2-(4-((6-methoxypyridin-3-yl)oxy)piperidin-1-yl)-3-methyl-6,7-dihydro-5H-pyrrolo[3,4-b]pyridin-5-one]
302 nM | Cc1c(N2CCC(Oc3ccc4c(c3)COC4)CC2)nc2c(c1CO)C(=O)NC2 [Example 303, 2-(4-((1,3-dihydro-2-benzofuran-5-yl)oxy)piperidin-1-yl)-4-(hydroxymethyl)-3-methyl-6,7-dihydro-5H-pyrrolo[3,4-b]pyridin-5-one]
1120 nM | COc1ccc(OC2CCN(c3nc4c(cc3CF)C(=O)NC4)CC2)cn1 [Example 304, 3-(Fluoromethyl)-2-(4-((6-methoxypyridin-3-yl)oxy)piperidin-1-yl)-6,7-dihydro-5H-pyrrolo[3,4-b]pyridin-5-one]
241 nM | COc1ccc(OC2CCN(c3nc4c(c(CF)c3C)C(=O)NC4)CC2)cn1 [Example 305, 4-(fluoromethyl)-2-(4-((6-methoxypyridin-3-yl)oxy)piperidin-1-yl)-3-methyl-6,7-dihydro-5H-pyrrolo[3,4-b]pyridin-5-one]
320 nM | COc1ccc(OC2CCN(c3nc4c(cc3C=O)C(=O)NC4)CC2)cn1 [Example 306, 2-(4-((6-Methoxypyridin-3-yl)oxy)piperidin-1-yl)-5-oxo-6,7-dihydro-5H-pyrrolo[3,4-b]pyridine-3-carbaldehyde]
1310 nM | COc1ccc(OC2CCN(c3nc4c(cc3C(F)F)C(=O)NC4)CC2)cn1 [Example 307, 3-(Difluoromethyl)-2-(4-((6-methoxypyridin-3-yl)oxy)piperidin-1-yl)-6,7-dihydro-5H-pyrrolo[3,4-b]pyridin-5-one]
279 nM | COc1ccc(OC2CCN(c3nc4c(c(C(F)F)c3C)C(=O)NC4)CC2)cn1 [Example 307A, 4-(difluoromethyl)-2-(4-((6-methoxypyridin-3-yl)oxy)piperidin-1-yl)-3-methyl-6,7-dihydro-5H-pyrrolo[3,4-b]pyridin-5-one]
176 nM | Cc1cc2c(nc1N1CCC(Oc3cccc(C=O)c3)CC1)CNC2=O [Example 308, 3-((1-(3-Methyl-5-oxo-6,7-dihydro-5H-pyrrolo[3,4-b]pyridin-2-yl)piperidin-4-yl)oxy)benzaldehyde]
47 nM | Cc1cc2c(nc1N1CCC(Oc3cccc(CO)c3)CC1)CNC2=O [Example 309, 2-(4-(3-(Hydroxymethyl)phenoxy)piperidin-1-yl)-3-methyl-6,7-dihydro-5H-pyrrolo[3,4-b]pyridin-5-one]
101 nM | COc1ccc(OC2CCN(c3nc4c(cc3C)C(=O)N(CC(N)=O)C4)CC2)cn1 [Example 310, 2-(2-(4-((6-methoxypyridin-3-yl)oxy)piperidin-1-yl)-3-methyl-5-oxo-5,7-dihydro-6H-pyrrolo[3,4-b]pyridin-6-yl)acetamide]
